Legend:
HeLa cells = assay: Percentage of peptide remained in HeLa cell lysate; format: in vitro ADME; conditions: 200 μM alone or with 100 nM BTZ, 1 h; cell lysate or culture medium
[1] = Self-assembly: hydrogelation and nanofiber formation; format: physicochemical; conditions: 500 μM, TEM images

Row | Degradation in HeLa cells compared with 1 (in words) (HeLa cells) | Nanofiber formation (TEM) [1] | Substance
1 | degrade slower than 1 | can form nanofibers | Nap-Phe-Phe-Asn [compound 2]
2 | degrade slower than 1 | can form nanofibers | Nap-Phe-Phe-Glu [compound 3]
